In PubChem BioAssay (NCI):
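Each compound was tested at five concentrations against cells in 96-well plates for 48 hours. Abbreviation: GI50, concentration required for 50% inhibition of growth. TGI marks complete inhibition of growth.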

Experiments:
Test in all cases: NCI anticancer screen, dose series, 48 h
NCI-H226 lung = tested on: NCI-H226 lung
MDA-MB-435 = tested on: MDA-MB-435
HOP-62 NSCLC = tested on: HOP-62 NSCLC
SF-295 CNS = tested on: SF-295 CNS
NCI-H460 lung = tested on: NCI-H460 lung
HL-60(TB) leukemia = tested on: HL-60(TB) leukemia
T-47D breast = tested on: T-47D breast
RPMI-8226 leukemia = tested on: RPMI-8226 leukemia
HCC-2998 colon = tested on: HCC-2998 colon
A549 NSCLC = tested on: A549 NSCLC
HS 578T breast = tested on: HS 578T breast
OVCAR-5 ovarian = tested on: OVCAR-5 ovarian
MOLT-4 leukemia = tested on: MOLT-4 leukemia
COLO 205 colon = tested on: COLO 205 colon
MALME-3M melanoma = tested on: MALME-3M melanoma
IGROV1 ovarian = tested on: IGROV1 ovarian
SR leukemia = tested on: SR leukemia

Work on `Cc1ccc(NC(=O)/C(=N/N(C)C)C(C2OC(=O)c3ccccc32)[N+](=O)[O-])cc1` (stereo not drawn) yielded a TGI (NCI-H226 lung) of over 100 µM, a TGI (MDA-MB-435) of over 100 µM and a TGI (HOP-62 NSCLC) of over 100 µM. It also gave a TGI (SF-295 CNS) of over 100 µM, a TGI (NCI-H460 lung) of over 100 µM and a TGI (HL-60(TB) leukemia) of over 100 µM. For the same molecule, the TGI (T-47D breast) was over 100 µM, the TGI (RPMI-8226 leukemia) was over 100 µM and the TGI (HCC-2998 colon) was over 100 µM. It also gave a TGI (A549 NSCLC) of over 100 µM, a TGI (HS 578T breast) of over 100 µM and a TGI (OVCAR-5 ovarian) of over 100 µM. For the same molecule, the TGI (MOLT-4 leukemia) was over 100 µM.
`O=C(Nc1cccc2ccccc12)c1ccccc1` gave a TGI (COLO 205 colon) of over 100 µM, a TGI (NCI-H226 lung) of over 100 µM and a TGI (MDA-MB-435) of over 100 µM. It also gave a TGI (HOP-62 NSCLC) of over 100 µM, a TGI (SF-295 CNS) of over 100 µM and a TGI (NCI-H460 lung) of over 100 µM. It also gave a TGI (HL-60(TB) leukemia) of over 100 µM, a TGI (MALME-3M melanoma) of over 100 µM and a TGI (T-47D breast) of 81.6 µM. The TGI (HCC-2998 colon) was over 100 µM, the TGI (IGROV1 ovarian) was over 100 µM and the TGI (A549 NSCLC) was over 100 µM. For the same molecule, the TGI (HS 578T breast) was over 100 µM and the TGI (OVCAR-5 ovarian) was over 100 µM.
`O=C(OC/C=C1C=C(OC(=O)c2ccccc2)/C(=N/N(C(=O)c2ccccc2)c2ccccc2)O\1)c1ccccc1` showed a TGI (NCI-H226 lung) of 54.1 µM, a GI50 (HOP-62 NSCLC) of 18.8 µM and a TGI (HOP-62 NSCLC) of 37 µM. It also gave a TGI (SF-295 CNS) of 21.4 µM, a TGI (NCI-H460 lung) of 20 µM and a GI50 (HL-60(TB) leukemia) of under 0.01 µM. It also gave a TGI (HL-60(TB) leukemia) of 2.29 µM, a TGI (RPMI-8226 leukemia) of 7.24 µM and a TGI (HCC-2998 colon) of 12.4 µM. For the same molecule, the TGI (IGROV1 ovarian) was 13.3 µM, the TGI (A549 NSCLC) was 22.6 µM and the GI50 (OVCAR-5 ovarian) was 15.9 µM. For the same molecule, the TGI (OVCAR-5 ovarian) was 29.5 µM and the TGI (MOLT-4 leukemia) was 14 µM.
`N#CCN(CC#N)C1CC=CCC1N(CC#N)CC#N` (stereo not drawn) gave a TGI (COLO 205 colon) of over 100 µM, a TGI (NCI-H226 lung) of over 100 µM and a TGI (MDA-MB-435) of over 100 µM. It also gave a TGI (HOP-62 NSCLC) of over 100 µM, a TGI (SF-295 CNS) of over 100 µM and a TGI (NCI-H460 lung) of over 100 µM. The TGI (HL-60(TB) leukemia) was over 100 µM, the TGI (MALME-3M melanoma) was over 100 µM and the TGI (T-47D breast) was over 100 µM. The TGI (RPMI-8226 leukemia) was over 100 µM, the TGI (IGROV1 ovarian) was over 100 µM and the TGI (A549 NSCLC) was over 100 µM. For the same molecule, the TGI (HS 578T breast) was over 100 µM, the TGI (OVCAR-5 ovarian) was over 100 µM and the TGI (MOLT-4 leukemia) was over 100 µM.
With `O=c1[nH]c(=O)n(C2OC(CO)C(O)C2O)cc1OCC(F)(F)F` (stereo not drawn) the TGI (COLO 205 colon) was over 100 µM, the TGI (NCI-H226 lung) was over 100 µM and the TGI (HOP-62 NSCLC) was over 100 µM. It also gave a TGI (SF-295 CNS) of over 100 µM, a TGI (NCI-H460 lung) of over 100 µM and a TGI (HL-60(TB) leukemia) of over 100 µM. It also gave a TGI (MALME-3M melanoma) of over 100 µM, a TGI (SR leukemia) of over 100 µM and a TGI (RPMI-8226 leukemia) of over 100 µM. The TGI (HCC-2998 colon) was over 100 µM, the TGI (IGROV1 ovarian) was over 100 µM and the TGI (A549 NSCLC) was over 100 µM. The TGI (OVCAR-5 ovarian) was over 100 µM and the TGI (MOLT-4 leukemia) was over 100 µM.
For `CCn1c2c(c3ccccc31)C(c1ccccc1)CC1C(=O)N(c3ccccc3)C(=O)C21` (stereo not drawn), the TGI (COLO 205 colon) was over 100 µM, the TGI (NCI-H226 lung) was over 100 µM and the TGI (HOP-62 NSCLC) was over 100 µM. It also gave a TGI (SF-295 CNS) of over 100 µM, a TGI (NCI-H460 lung) of over 100 µM and a TGI (HL-60(TB) leukemia) of over 100 µM. It also gave a TGI (MALME-3M melanoma) of 52.4 µM, a TGI (HCC-2998 colon) of over 100 µM and a TGI (IGROV1 ovarian) of over 100 µM. For the same molecule, the TGI (A549 NSCLC) was over 100 µM, the TGI (OVCAR-5 ovarian) was over 100 µM and the TGI (MOLT-4 leukemia) was over 100 µM.
With `COc1ccc2[nH]c3c(C)cc([N+](=O)[O-])c(C)c3c2c1` the TGI (COLO 205 colon) was over 100 µM, the TGI (NCI-H226 lung) was over 100 µM and the TGI (SF-295 CNS) was over 100 µM. For the same molecule, the TGI (NCI-H460 lung) was 39.7 µM, the TGI (HL-60(TB) leukemia) was 50.4 µM and the TGI (MALME-3M melanoma) was 73.4 µM. For the same molecule, the TGI (SR leukemia) was 58.5 µM, the TGI (RPMI-8226 leukemia) was 62.7 µM and the TGI (HCC-2998 colon) was 67.7 µM. It also gave a TGI (IGROV1 ovarian) of over 100 µM, a TGI (A549 NSCLC) of 75.3 µM and a TGI (MOLT-4 leukemia) of over 100 µM.
`CC(CN(C)C)C(=O)c1ccccc1` (stereo not drawn) gave a TGI (COLO 205 colon) of over 67.5 µM, a TGI (NCI-H226 lung) of over 100 µM and a TGI (HOP-62 NSCLC) of over 100 µM. For the same molecule, the TGI (SF-295 CNS) was over 100 µM, the TGI (NCI-H460 lung) was over 100 µM and the TGI (HL-60(TB) leukemia) was over 57 µM. For the same molecule, the TGI (MALME-3M melanoma) was over 61.1 µM, the TGI (SR leukemia) was 60.2 µM and the TGI (RPMI-8226 leukemia) was 19.8 µM. For the same molecule, the TGI (HCC-2998 colon) was 63 µM, the TGI (IGROV1 ovarian) was over 100 µM and the TGI (A549 NSCLC) was over 100 µM. The TGI (OVCAR-5 ovarian) was 96.1 µM and the TGI (MOLT-4 leukemia) was 27.6 µM.
For `COc1ccc2nc3n(c2c1)C(=O)c1ccccc1-3`, the TGI (COLO 205 colon) was over 100 µM, the TGI (NCI-H226 lung) was over 100 µM and the TGI (HOP-62 NSCLC) was over 100 µM. For the same molecule, the TGI (SF-295 CNS) was over 100 µM, the TGI (NCI-H460 lung) was over 100 µM and the TGI (HL-60(TB) leukemia) was over 100 µM. It also gave a TGI (MALME-3M melanoma) of over 100 µM, a TGI (SR leukemia) of over 100 µM and a TGI (RPMI-8226 leukemia) of over 100 µM. It also gave a TGI (HCC-2998 colon) of over 100 µM, a TGI (IGROV1 ovarian) of over 100 µM and a TGI (A549 NSCLC) of over 100 µM. For the same molecule, the TGI (OVCAR-5 ovarian) was over 100 µM and the TGI (MOLT-4 leukemia) was over 100 µM.
With `CC1(C)CC(=O)c2c(nc3c(ccc4ccccc43)c2-c2ccc(NC(=O)CCCCC(=O)Nc3ccc(-c4c5c(nc6c4ccc4ccccc46)CC(C)(C)CC5=O)cc3)cc2)C1` the TGI (COLO 205 colon) was 65.1 µM, the TGI (NCI-H226 lung) was 54.9 µM and the TGI (MDA-MB-435) was over 100 µM. For the same molecule, the TGI (HOP-62 NSCLC) was over 100 µM, the TGI (SF-295 CNS) was 41.6 µM and the TGI (NCI-H460 lung) was 91.8 µM. The TGI (HL-60(TB) leukemia) was 77.6 µM, the TGI (T-47D breast) was over 100 µM and the TGI (RPMI-8226 leukemia) was 71.4 µM. For the same molecule, the TGI (IGROV1 ovarian) was 37.5 µM, the TGI (A549 NSCLC) was over 100 µM and the TGI (HS 578T breast) was over 100 µM. The TGI (OVCAR-5 ovarian) was over 100 µM and the TGI (MOLT-4 leukemia) was 55.9 µM.
`Cc1ccc2oc3c(c(Br)c(Br)n3C)c(=O)c2c1` showed a TGI (COLO 205 colon) of over 100 µM, a TGI (NCI-H226 lung) of 32.9 µM and a TGI (MDA-MB-435) of over 100 µM. It also gave a TGI (HOP-62 NSCLC) of 33.3 µM, a TGI (SF-295 CNS) of 47.2 µM and a TGI (HL-60(TB) leukemia) of over 100 µM. It also gave a TGI (MALME-3M melanoma) of 70.5 µM, a TGI (T-47D breast) of over 100 µM and a TGI (RPMI-8226 leukemia) of over 100 µM. The TGI (IGROV1 ovarian) was over 100 µM, the TGI (A549 NSCLC) was 51.5 µM and the TGI (HS 578T breast) was 65 µM. It also gave a TGI (OVCAR-5 ovarian) of 99.7 µM and a TGI (MOLT-4 leukemia) of over 100 µM.
In the case of `O=c1[nH]c(=O)n(C2CC(O)C(CO)O2)cc1C#Cc1ccc(F)cc1` (stereo not drawn), the TGI (COLO 205 colon) is reported as over 100 µM, the TGI (NCI-H226 lung) is reported as over 100 µM and the TGI (HOP-62 NSCLC) is reported as over 100 µM. It also gave a TGI (SF-295 CNS) of over 100 µM, a TGI (NCI-H460 lung) of over 100 µM and a TGI (MALME-3M melanoma) of over 100 µM. For the same molecule, the TGI (SR leukemia) was over 100 µM, the TGI (RPMI-8226 leukemia) was over 100 µM and the TGI (HCC-2998 colon) was over 100 µM. It also gave a TGI (IGROV1 ovarian) of over 100 µM, a TGI (A549 NSCLC) of over 100 µM and a TGI (OVCAR-5 ovarian) of over 100 µM. For the same molecule, the TGI (MOLT-4 leukemia) was over 100 µM.
`c1ccc2c(c1)ccn1ccc3c4ccccc4nc-3c21` showed a TGI (COLO 205 colon) of 1.13 µM, a TGI (NCI-H226 lung) of 1.81 µM and a TGI (MDA-MB-435) of 1.65 µM. It also gave a TGI (HOP-62 NSCLC) of 1.85 µM, a TGI (SF-295 CNS) of 2.03 µM and a TGI (HL-60(TB) leukemia) of 1.36 µM. The TGI (MALME-3M melanoma) was 2.01 µM, the TGI (T-47D breast) was 3.51 µM and the TGI (RPMI-8226 leukemia) was 0.799 µM. It also gave a TGI (HCC-2998 colon) of 1.16 µM, a TGI (IGROV1 ovarian) of 2.8 µM and a TGI (A549 NSCLC) of 1.57 µM. It also gave a TGI (HS 578T breast) of 4.25 µM, a TGI (OVCAR-5 ovarian) of 2.36 µM and a TGI (MOLT-4 leukemia) of 0.415 µM.
